17 compounds from US9820483B2, “Microbial composition” (Rohm and Haas Company, priority 2011, dated 2017) can be followed below.

Assay [1] deals with Escherichia coli (E. coli—ATCC #10536). Kind of assay: Automated assessment of efficacy in model surfactant base (2.85% sodium cocoyl glycinate + 1.85% sodium lauroamphoacetate, pH 10), 15 seconds exposure, delta OD450/OD590 in D/E quench. Format: cell-based. As for the experimental part:
Solutions were prepared such that the concentrations of the surfactant components and test actives were 1.1× the final desired concentration in order to allow for dilution with the bacterial inoculum in the test. The solutions were manually adjusted to pH 10.0 by dropwise addition of sodium hydroxide solution, as measured with a pH meter at ambient temperature.
Tests were conducted using standard microtiter plate assays using an automated liquid handling system. 270 μl of the surfactant test solution was pipetted into each well of the microtitre plate and 30 μl of the bacterial suspension was then added. After exactly 15 seconds of bacterial exposure, a 30 μl volume of bacterial cells was withdrawn and transferred to 270 μl of D/E quench solution. After 5 minutes in the D/E quench, the optical density (OD) was measured for each plate in turn at two specific wavelengths (450 nm and 590 nm). These provide a dual check of antimicrobial activity, as the OD450 reading is specific for the yellow colour of D/E quench when bacterial growth is observed, whereas OD590 is specific for the initial purple colour of the D/E quench which is retained if no bacterial growth is observed. After the time zero OD measurements, plates were then incubated at 37° C. overnight (16 hours) before repeating the OD measurements. Delta OD values were calculated by subtracting […]. Bacterial growth is observed as an increase in OD450 and a decrease in ΔOD590. To identify antibacterially efficacious systems (those preventing appreciable bacterial growth after incubation), the following threshold changes in OD readings have been adopted: if (1). OD450 increases by less than 0.2 absorbance unit on incubation and (2). OD590 decreases by less than 0.35 unit on incubation. Conversely, where OD450 increases by more than 0.2 AU and OD590 decreases by more than 0.35 unit after incubation, corresponding to a colour shift from purple to yellow, the test system allows bacterial growth and is not deemed efficacious. Four replicate measurements in the same plate have been made for each test system. The number of replicate wells showing either bacterial growth or no growth is also readily assessed by eye by following the colour change.
Dose responses for individual components and binary mixtures of actives at a fixed concentration ratio were generated by sequential dilution of liquors with further surfactant solution to obtain a series of endpoints.
In some selected cases, the combinations were also tested at the weight ratio 1:1.
The method used was the same as in the above Table.

Another assay concerns E. coli ATCC #10536. Briefly: Synergy test: high resolution MBC microtiter plate assay in phosphate buffer containing 35% dipropylene glycol, 15 seconds contact. The following applies: for MBC of the component acting alone (QA or QB; Qa or Qb with the other component at 0): E. coli 10536, complete kill in 15 seconds, phosphate buffer with 35% DPG. In kind it is cell-based, Escherichia coli. From the text: One measure of synergy is the industrially accepted method described by Kull, F. C.; Eisman. P. C.; Sylwestrowicz, H. D. and Mayer, R. L., in Applied Microbiology 9:538-541 (1961), using the ratio determined by the formula: Qa/QA÷Qb/QB=Synergy Index (“SI”) wherein: QA=concentration of compound A (first component) in percent, acting alone, which produced an end point (MBC of Compound A). […]=concentration of compound A in percent, in the mixture, which produced an end point. QB=concentration of compound B (second component) in percent, acting alone, which produced an end point (MBC of Compound B). Qb=concentration of compound B in percent, in the mixture, which produced an end point.
When the sum of Qa/QA and Qb/QB is greater than one, antagonism is indicated. […] The lower the SI, the greater is the synergy shown by that particular mixture. The minimum biocidal concentration (MBC) of a microbicide is the lowest concentration tested under a specific set of conditions that provides complete kill of the tested microorganisms.
Synergy tests were conducted using standard microtiter plate assays with phosphate buffer containing 35% dipropylene glycol (DPG). In this method, a wide range of combinations of chemicals was tested by conducting high resolution MBC assays of Component (A) in the presence of various concentrations of Component (B). High resolution MBCs were determined by adding varying amounts of microbicide to one column of a microtiter plate and doing subsequent ten-fold dilutions using an automated liquid handling system to obtain a series of closely spaced endpoints. The MBC plate was inoculated one column at a time with the test microorganism. An aliquot of the inoculated well was transferred at 15 seconds to a plate containing a neutralizing agent (D/E Neutralizing Broth), mixed and held for 5 minutes before being transferred to a growth plate containing trypticase soy broth (TSB). The TSB plate was incubated at 37° C. and read for the presence/absence of growth at 24 hours. The lowest level tested that provided complete kill (as evidenced by no growth in the microtitre plate) of the test organisms in 15 seconds is the minimum biocidal concentration (MBC).
The synergy of the combinations of the present invention was determined against a bacterium, Esherichia coli (E. coli—ATCC #10536), at a concentration of approximately 1×10^8 bacteria per mL. This microorganism is representative of natural contaminants in many consumer and industrial applications.

Turning to `CCC1CCC(C(CO)CO)CC1` (centres unmarked), the “No. of replicates showing growth (out of 4)” value in assay [1] (single active at 0.4% w/v), in assay [1] (single active at 0.5% w/v) and in assay [1] (single active at […] w/v) was 4 each time. Moreover, the figures for the “Δ OD 590 nm = OD590 (time = 16 hours) − OD590 (time zero), Mean” value (“Δ OD 590 nm = OD590” for short) in assay [1] (single active at 0.4% w/v), in assay [1] (single active at 0.5% w/v) and in assay [1] (single active at […] w/v) were 0.56, 0.590 and 0.56, respectively. Besides, the “ΔOD 450 nm = OD450 (time = 16 hours) − OD450 (time zero), Mean” value (“ΔOD 450 nm = OD450” below) was −0.49 in assay [1] (single active at 0.4% w/v), −0.48 in assay [1] (single active at 0.5% w/v) and −0.54 in assay [1] (single active at […] w/v).
Regarding `CCCC(=O)OC(C)(C)C1CC=C(C)CC1` (centres unmarked) [2-(4-methylcyclohex-3-enyl)propan-2-yl butyrate], in the assay with E. coli ATCC #10536, the “MBC of the component acting alone (QA or QB; Qa or Qb with the other component at 0)” value (shortened to “MBC of the component acting alone”) was found to be 2.4 weight %.
The same measure, in the same setting: then `CCCC1CCC(C(CO)CO)CC1` [2-((1S,4R)-4-propylcyclohexyl)propane-1,3-diol], with 2.5 weight %.
`CC[C@H]1CC[C@H](C(CO)CO)CC1` [2-(trans-4-ethylcyclohexyl)propane-1,3-diol]: in assay [1] (Escherichia coli, ATCC10536, 15 s, in 2.85% sodium cocoyl glycinate + 1.85% sodium lauroamphoacetate solution at pH 10, E. coli, read-out: MBC), the MBC (usually the smallest concentration meeting the test's criterion for killing) is above 2000 µg/mL.
On to `CCC(C)c1ccccc1O` (centres unmarked) [2-sec-butylphenol], for which the “Δ OD 590 nm = OD590” value in assay [1] (single active at 0.05% w/v) is recorded as 0.30; in assay [1] (single active at 0.1% w/v), 0.36; in assay [1] (single active at […] w/v) it was 0.50. Besides, the “ΔOD 450 nm = OD450” value was −1.50 in assay [1] (single active at 0.05% w/v) and −0.41 in assay [1] (single active at […] w/v). For the same compound, the “MBC of the component acting alone” value in the assay on E. coli ATCC #10536 is on record as 0.3 weight %.
`CC(C)(C)c1ccccc1O` [2-tert-butylphenol]: the “Δ OD 590 nm = OD590” value in assay [1] (single active at 0.05% w/v) came out at 0.22; in assay [1] (single active at 0.1% w/v) it was 0.23; in assay [1] (single active at 0.125% w/v), 0.30; in assay [1] (single active at 0.2% w/v) it was 0.07. Further, the “No. of replicates showing growth (out of 4)” value is listed as 4 in assay [1] (single active at 0.1% w/v) and 0 in assay [1] (single active at 0.2% w/v). Further, the “ΔOD 450 nm = OD450” value is listed as −1.55 in assay [1] (single active at 0.1% w/v) and −0.04 in assay [1] (single active at 0.2% w/v).
With `Cc1cc(O)cc(C(C)C)c1` [3-isopropyl-5-methylphenol], the “MBC of the component acting alone” value with E. coli ATCC #10536 is listed as 0.3 weight %.
As for `CCCc1cccc(O)c1` [3-n-propylphenol], the “No. of replicates showing growth (out of 4)” value in assay [1] (single active at 0.125% w/v) and in assay [1] (single active at 0.2% w/v) was 4 in each case. In addition, the “Δ OD 590 nm = OD590” value is listed as 0.57 in assay [1] (single active at 0.125% w/v), 0.56 in assay [1] (single active at 0.2% w/v) and 0.56 in assay [1] (single active at […] w/v). Also, the entries for the “ΔOD 450 nm = OD450” value in assay [1] (single active at 0.125% w/v), in assay [1] (single active at 0.2% w/v) and in assay [1] (single active at […] w/v) were −0.59, −0.57 and −0.63, respectively.
Turning to `CC(C)(C)c1cccc(O)c1` [3-tert-butylphenol], in assay [1] (single active at 0.125% w/v), the “Δ OD 590 nm = OD590” value amounted to 0.65 and the “ΔOD 450 nm = OD450” value was −0.45. Moreover, in assay [1] (single active at 0.2% w/v), the “Δ OD 590 nm = OD590” value is reported as 0.64 and the “ΔOD 450 nm = OD450” value is −0.47. For the same compound, the “MBC of the component acting alone” value in the assay with E. coli ATCC #10536 is reported as 0.3 weight %.
Regarding `Cc1cc(O)ccc1C(C)C` [4-isopropyl-3-methylphenol], in assay [1] (single active at 0.05% w/v), the “Δ OD 590 nm = OD590” value is 0.25 and the “ΔOD 450 nm = OD450” value is −1.52. In assay [1] (single active at 0.1% w/v), the “Δ OD 590 nm = OD590” value is 0.24 and the “ΔOD 450 nm = OD450” value is −1.50. Further, in assay [1] (single active at 0.2% w/v), the “No. of replicates showing growth (out of 4)” value was determined as 4; the “Δ OD 590 nm = OD590” value is recorded as 0.36; the “ΔOD 450 nm = OD450” value is −1.41. Also, in the assay on E. coli ATCC #10536, the “MBC of the component acting alone” value came to 0.3 weight %.
Take `CCCCc1ccc(O)cc1` [4-n-butylphenol]: the “Δ OD 590 nm = OD590” value was 0.53 in assay [1] (single active at 0.1% w/v), 0.58 in assay [1] (single active at 0.2% w/v) and 0.54 in assay [1] (single active at […] w/v). In addition, the figures for the “ΔOD 450 nm = OD450” value in assay [1] (single active at 0.1% w/v), in assay [1] (single active at 0.2% w/v) and in assay [1] (single active at […] w/v) were −0.61, −0.54 and −0.61, respectively.
As for `CCCc1ccc(O)cc1` [4-propylphenol], the “Δ OD 590 nm = OD590” value in assay [1] (single active at 0.1% w/v) worked out at 0.34. Besides, in assay [1] (single active at 0.2% w/v), the “Δ OD 590 nm = OD590” value is on record as 0.43 and the “ΔOD 450 nm = OD450” value was −1.49.
Consider `CCC(C)c1ccc(O)cc1` (centres unmarked) [4-sec-butylphenol], for which the “Δ OD 590 nm = OD590” value in assay [1] (single active at 0.125% w/v) is 0.60; in assay [1] (single active at 0.2% w/v), 0.59; in assay [1] (single active at […] w/v) it was 0.60. In addition, the “ΔOD 450 nm = OD450” value is −0.56 in assay [1] (single active at 0.125% w/v), −0.56 in assay [1] (single active at 0.2% w/v) and −0.53 in assay [1] (single active at […] w/v). Also, in assay [1] (single active at 0.2% w/v), the “No. of replicates showing growth (out of 4)” value came to 4. The “MBC of the component acting alone” value in the assay on E. coli ATCC #10536 is given as 0.2 weight %.
Take `Cc1ccc(C(C)C)cc1O` [5-isopropyl-2-methylphenol]: in assay [1] (single active at 0.125% w/v), the “No. of replicates showing growth (out of 4)” value is reported as 4; the “Δ OD 590 nm = OD590” value worked out at 0.63; the “ΔOD 450 nm = OD450” value is reported as −0.50. Further, in assay [1] (single active at 0.2% w/v), the “No. of replicates showing growth (out of 4)” value is 4; the “Δ OD 590 nm = OD590” value was 0.62; the “ΔOD 450 nm = OD450” value is given as −0.52. Besides, in assay [1] (single active at […] w/v), the “No. of replicates showing growth (out of 4)” value is given as 4; the “Δ OD 590 nm = OD590” value stood at 0.64; the “ΔOD 450 nm = OD450” value is reported as −0.52. Further, in the assay with E. coli ATCC #10536, the “SI (Synergy Index)” value is 1.00.
In the case of `C=C(C)[C@@H]1CC[C@@H](C)C[C@H]1O` [(1R,2S,5R)-5-methyl-2-(prop-1-en-2-yl)cyclohexanol], in the assay with E. coli ATCC #10536, the “MBC of the component acting alone” value was 0.5 weight %.
For `CC(=O)O[C@H]1C[C@H](C)CC[C@H]1C(C)C` [(1S,2S,5R)-2-isopropyl-5-methylcyclohexyl acetate], the “MBC of the component acting alone” value in the assay with E. coli ATCC #10536 is listed as 2.4 weight %.
In the case of `C/C=C/c1ccccc1O` [(E)-2-(prop-1-enyl)phenol], in assay [1] (single active at 0.1% w/v), the “No. of replicates showing growth (out of 4)” value is listed as 4; the “Δ OD 590 nm = OD590” value is listed as 0.59; the “ΔOD 450 nm = OD450” value is −0.60. In assay [1] (single active at 0.2% w/v), the “No. of replicates showing growth (out of 4)” value is 4; the “Δ OD 590 nm = OD590” value came to 0.63; the “ΔOD 450 nm = OD450” value is recorded as −0.53. Also, in assay [1] (single active at […] w/v), the “No. of replicates showing growth (out of 4)” value is reported as 4; the “Δ OD 590 nm = OD590” value is recorded as 0.58; the “ΔOD 450 nm = OD450” value is recorded as −0.57.
